Laboratory results from a melting point compilation (Tetko et al.; mined from patent text by program, amines drawn as free bases though some values may be those of a salt).

melting point | SMILES
68 to 70 °C | CC(=O)c1cccc(Oc2ncccc2C(=O)NCc2ccc(C(C)(C)O)cc2F)c1
196 to 198 °C | Cc1ccc(C(=O)Nc2ccc(N3CCN(Cc4ccc[nH]4)CC3)cc2)c(-c2ccc(C(F)(F)F)cc2)c1
165 to 167 °C | O=c1[nH]c(COCC(F)(F)F)nc2nccnc12
191 to 192 °C | CCCCn1nc(Cc2ccc(-c3ccccc3-c3nnn[nH]3)cc2)c(C(=O)O)c1CC
40 to 41 °C | CCCCCCCCCCOC(=O)N[C@H]1CCCNC(=O)C1
110 to 112 °C | CCc1ccc(S(=O)(=O)c2ccc(C)nc2Nc2ccc(OC)cc2Cl)cc1
121 to 124 °C | CCC1(CCCCN2CCN(c3ccc(F)c(Cl)c3)CC2)C(=O)Nc2ccccc21 (stereo not drawn)
58 to 60 °C | CCC(C)NC(=O)c1ncc(C)cc1C(=O)OC (stereo not drawn)
92 to 94 °C | CCN(CC)CCNC(=O)c1cc(Cl)c(N)cc1OCC(=O)OC
193 to 194 °C | Cc1cn(C2CC(O)C(CO[Si](C)(C)C(C)(C)C)O2)c(=O)[nH]c1=O (stereo not drawn)
197 °C | CC(=O)Nc1cc(C)c(N)c(C)c1[N+](=O)[O-]
86 to 88 °C | COc1ccc(-c2nc3c(OC)cccc3s2)cc1
110 to 111 °C | OCC1Cc2c(cc(Cl)c3c(-c4ccccc4F)noc23)O1 (stereo not drawn)
189 to 193 °C | CCC(=O)NC(C)(C)COc1cccc2nc(C)c(C(=O)O)c(N)c12
124 to 142 °C | Cc1ccc(S(=O)(=O)C2CCCN(S(=O)(=O)c3ccc(C)cc3)C2)cc1 (stereo not drawn)
116 to 117 °C | N=C(NO)c1ccc(-c2ccc(Br)o2)cc1
148 to 150 °C | CCOC(=O)CN(C(=S)Nc1cc(Cl)ccc1C)c1ccccc1

melting point | SMILES
310 to 312 °C | CCCCCc1nc2ccc(C(=O)O)cc2c(=O)[nH]1
99 °C | O=C1C=CC2=C(C1CC1CC1)n1ccc3c1=C(CCC=3)c1nncn12 (stereo not drawn)
200 to 206 °C | CN1Cc2c(-c3nc(CCl)co3)ncn2-c2ccsc2C1=O
137 to 139 °C | Cc1c(CC(C)(C)C(=O)O)n(Cc2ccc(Cl)cc2)c2ccc(OCc3cccc(-c4ccccc4)n3)cc12
97 to 100 °C | COc1ccc(Br)c2c1CC(=O)CO2
146 to 148 °C | Cc1ccc(NS(=O)(=O)c2cc(C)c3cc(C(C)C)ccc(C)c2-3)cc1
118 to 119 °C | C=CCn1c(C)c(C)c2cnnc(CCc3ccc(F)cc3F)c21
117 to 119 °C | COc1cc2c(cc1O)CCCC2=O
86.5 to 88 °C | CCOC(=O)CC(C#N)(CC(=O)OCC)c1ccccn1
144 to 145 °C | CCOC(=O)c1c(Cn2cncn2)nc2sc(C)c(C)c2c1-c1ccc(Cl)cc1
212 to 215 °C | Cc1ccc(-c2c(Cl)nc(C#N)n2O)cc1
58 to 61.5 °C | CCOC(=O)C(Cc1ccccc1)N(CC)C(=O)OC(C)(C)C (stereo not drawn)
112 to 114 °C | CCOC(=O)C1=C(COCc2nnn(CCNc3ccc(S(=O)(=O)N4CCOCC4)cn3)n2)NC(C)=C(C(=O)OC)C1c1cccc(Cl)c1Cl (stereo not drawn)
108 to 116 °C | COc1cc(C2CCN(C[C@H](O)CO)CC2)ccc1Nc1ncc2ccc(-c3ccccc3N(C)S(C)(=O)=O)n2n1
> 260 °C | COc1cc2sc(C(=O)O)c(Cl)c2cc1OC
112 to 113 °C | COc1cc2c(c3c1OC(C)(C)C3)C(C)=NC(C)(C)C2
194 to 195 °C | CCNc1nc(C)c(-c2ccnc(Nc3ccc4c(c3)OCO4)n2)s1

Continued, molecule first:

SMILES | melting point
c1ccc(-c2nc3cc(COc4ccc(CCCn5ccnc5)cc4)ccc3o2)cc1 | 137 to 138 °C
Cc1cccc(NC(=O)NC2N=C(c3ccccc3F)c3ccccc3N(CCOC(=O)N3CC4CCC(CC4)C3)C2=O)c1 (racemic) | 169 to 171 °C
C=CC(O)c1ccccc1C#CC1C(O)C2CCN1CC2 (stereo not drawn) | 148 to 150 °C
O=C(O)CCCCCN(C(=O)c1ccc(Cl)cc1Cl)c1ccccc1-c1ccccc1 | 112 to 113 °C
CCN(CC)S(=O)(=O)N1CCNC1=O | 80 to 82 °C
CC(c1cccnc1)N(c1ccc(F)cc1F)S(C)(=O)=O (stereo not drawn) | 76 to 78 °C
O=C(O)COc1cccc2c1Cc1sc(SCc3ccccc3)nc1-2 | 166 to 169 °C
O=C(Nc1cccc(-c2ccccc2)c1)Nc1ccccc1CCO | 196 to 198 °C
COc1ccc(Cn2ccnc2S)cc1Br | 188 °C
COC(=O)C1Cc2c(cccc2-c2ccccc2)CN1 (stereo not drawn) | 149 to 150 °C
Cn1ccnc1NC(=O)c1c(C(F)(F)F)nc2c(C(F)(F)F)cccc2c1O | 259 °C
O=CN(O)C(CC1CCS(=O)(=O)CC1)CS(=O)(=O)c1ccc(Oc2ccc(OC(F)(F)F)cc2)cc1 (stereo not drawn) | 143 to 144 °C
FCc1cc(Cl)n2nc(SCc3ccccc3)nc2n1 | 81 to 86 °C
O=[N+]([O-])C1=C2N(Cc3ccc(Cl)nc3)CCN2C2CCCC1O2 (stereo not drawn) | 175 °C
CC1(C)Cc2nsc(=Nc3c(F)cc(Cl)c4nc(Cl)sc34)n2C1 | 134 to 136 °C
COc1ncc(F)c2n[nH]c(=S)n12 | 166 °C
O=C(O)C1c2ccccc2OCc2ncccc21 (stereo not drawn) | 139 to 140 °C
O=C(Cl)N1Cc2ccccc2Oc2ccc(Cl)cc21 | 100 to 102 °C
N#CCc1cccc(CO)c1[N+](=O)[O-] | 60 to 62 °C
O=C1CCOc2ccc(OCc3ccccc3)cc21 | 107 to 108 °C

SMILES | melting point
CCCN(CCC)S(=O)(=O)c1cccc(C(=O)Nc2cccc([N+](=O)[O-])c2)c1 | 126 to 128 °C
O=C1NCC[C@H](c2ccc(C(F)(F)F)cc2)[C@@H]1c1ccccc1 (relative stereo) | 155 to 156 °C
c1cc(N2CCCC2)ncc1C12CCN(CC1)C2 | 119 to 121 °C
O=S(=O)(NC(=NO)Nc1ccc(Cl)cc1)c1cc(S(=O)(=O)c2ccccc2)cs1 | 195 °C
C#CCCN1CC=C(c2ccccc2)CC1 | 36.5 to 37.5 °C
N#CC1CCN(CCc2ccc(F)cc2)CC1 | 47 to 48 °C
O=C(O)CCc1cn(Cc2ccc(OCc3ccc4ccccc4n3)cc2)nc1-c1ccc(F)cc1 | 178 to 179 °C
CC(=O)Cc1ccc(-c2ccc(Cl)cc2)cc1 | 79 to 81 °C
COc1ccc(C(=O)Nc2ccccc2)cc1NS(=O)(=O)c1ccc(C)cc1 | 200 to 202 °C
CCOc1cc(CCC(=O)O)ccc1OCCCc1cn(-c2ccc(C(F)(F)F)cn2)nc1OCC | 114 to 115 °C
Nc1ccc(-c2nc3ccccc3s2)cc1Cl | 160 to 162 °C
O=C(NCC(O)c1ccccc1)c1ccc2n1Cc1ccccc1N(C(=O)COc1ccc(Cl)cc1)C2 (stereo not drawn) | 157 to 158 °C
CCCCSc1nc(O)ns1 | 78 °C
OC(CCCl)COc1cccc(C(F)(F)F)c1 (stereo not drawn) | 50 to 52 °C
CCc1cccc2c1C(=O)N(Cn1nnn(-c3ccccc3)c1=S)S2(=O)=O | 127 to 129 °C
CSc1ncc2cc(Oc3ccc(F)cc3F)c(NS(C)(=O)=O)nc2n1 | 199 to 204 °C
CCc1nc2ccc(Cc3ccc(C(=O)NO)cc3)cc2c(=O)n1CCc1ccccc1 | 181 to 183 °C
COC(=O)C(Cc1ccc(OS(=O)(=O)C(F)(F)F)cc1)NC(=O)OCc1ccccc1 (stereo not drawn) | 70 to 73 °C
CCc1nc(NC(=O)c2cc(Br)ccc2O)sc1-c1ccccc1 | 224 to 225 °C
